Laboratory results reported in article PMC12227546 (Nature Communications, 2025).

How the values were obtained:
[1] = target: T1, taurine transporter (TauT) (Homo sapiens, UniProt P31641); assay: cryo-EM structure; type: cell-based
T1 sequence (P31641 1-620): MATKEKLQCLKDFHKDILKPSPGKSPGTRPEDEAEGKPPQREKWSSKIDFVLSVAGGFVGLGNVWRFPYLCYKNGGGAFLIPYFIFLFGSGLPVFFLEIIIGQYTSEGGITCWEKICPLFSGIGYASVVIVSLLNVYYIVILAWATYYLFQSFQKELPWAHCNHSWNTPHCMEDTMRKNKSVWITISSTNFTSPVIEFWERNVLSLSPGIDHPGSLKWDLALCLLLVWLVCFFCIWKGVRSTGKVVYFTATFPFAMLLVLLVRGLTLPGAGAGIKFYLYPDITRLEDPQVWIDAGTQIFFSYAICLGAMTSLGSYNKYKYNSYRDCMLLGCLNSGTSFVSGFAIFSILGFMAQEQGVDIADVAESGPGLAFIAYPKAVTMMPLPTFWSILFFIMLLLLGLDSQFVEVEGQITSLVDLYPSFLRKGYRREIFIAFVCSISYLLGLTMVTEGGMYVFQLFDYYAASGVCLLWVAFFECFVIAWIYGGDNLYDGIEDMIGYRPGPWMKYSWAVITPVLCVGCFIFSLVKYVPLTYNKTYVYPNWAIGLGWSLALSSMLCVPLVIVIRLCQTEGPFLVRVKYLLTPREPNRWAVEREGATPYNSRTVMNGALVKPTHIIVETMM

[2] = substrate: NCCS(=O)(=O)O; assay: cells, lysate or membranes; type: cell-based, Homo sapiens; settings: Na+ and Cl- central pocket

For NCCCC(=O)O [GABA], the IC50 [1] was 1300 µM.

B1: taurine transporter (TauT) (Homo sapiens; F58A) (protein)
chain: MATKEKLQCLKDFHKDILKPSPGKSPGTRPEDEAEGKPPQREKWSSKIDFVLSVAGGAVGLGNVWRFPYLCYKNGGGAFLIPYFIFLFGSGLPVFFLEIIIGQYTSEGGITCWEKICPLFSGIGYASVVIVSLLNVYYIVILAWATYYLFQSFQKELPWAHCNHSWNTPHCMEDTMRKNKSVWITISSTNFTSPVIEFWERNVLSLSPGIDHPGSLKWDLALCLLLVWLVCFFCIWKGVRSTGKVVYFTATFPFAMLLVLLVRGLTLPGAGAGIKFYLYPDITRLEDPQVWIDAGTQIFFSYAICLGAMTSLGSYNKYKYNSYRDCMLLGCLNSGTSFVSGFAIFSILGFMAQEQGVDIADVAESGPGLAFIAYPKAVTMMPLPTFWSILFFIMLLLLGLDSQFVEVEGQITSLVDLYPSFLRKGYRREIFIAFVCSISYLLGLTMVTEGGMYVFQLFDYYAASGVCLLWVAFFECFVIAWIYGGDNLYDGIEDMIGYRPGPWMKYSWAVITPVLCVGCFIFSLVKYVPLTYNKTYVYPNWAIGLGWSLALSSMLCVPLVIVIRLCQTEGPFLVRVKYLLTPREPNRWAVEREGATPYNSRTVMNGALVKPTHIIVETMM
In the case of B1, the Km [2] is reported as 166.2 µM.
